Assay results published in patent US20240383900A1, “SUBSTITUTED PYRAZOLO [1,5-A]PYRIMIDINE-7-AMINE COMPOUNDS AS CDK INHIBITORS AND THEIR THERAPEUTIC USE” (Carrick Therapeutics Limited, priority 2021, published 2024).
Where two headings read alike, the source gives them in different places.

What was measured:
A673 cells [1] = assay: Cytotoxicity in A673 cells (Cell Titer Glo viability); format: cell-based; conditions: for Ratio of Biochemical Potency:Cellular Potency: CDK12 IC50 / A673 IC50; for IC50: Homo sapiens
Method in brief: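 Cells plated at 1.2×10^5 per well in DMEM+10% FBS, 24 h, then compound series ± MLN4924 (30 nM final) in 0.1% DMSO for 72 h. Viability by Cell Titer Glo luminescence, normalised to vehicle (100%) and 0.1% Triton x-100 (0%); MLN4924 curves normalised to MLN4924-treated controls.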

Human CDK7/CycH/MAT1 = Human CDK7/CycH/MAT1 (Homo sapiens (Human), UniProt P50613); assay: Radiometric protein kinase assay (33PanQinase Activity Assay), CDK7; format: biochemical; conditions: ATP 3 μM
A673 cells [2] = assay: A673 cytotoxic potency shift in the presence of MLN4924 (cyclin K degrader activity); format: cell-based; conditions: for Cyclin K Degrader Activity (A673 potency shift + MLN4924): 30 nM MLN4924, 72 hours; for Change of cytotoxic potency in the presence of MLN4924: 72 hours, presence and absence of 30 nM MLN4924
Cyclin K = Cyclin K (Homo sapiens (Human), UniProt O75909); assay: Western blotting analysis of Cyclin K depletion in cell culture; format: cell-based; conditions: A673 cells, 1 μM test compound, 2 hours, absence and presence of 10 μM MLN4924
Method: A673 cells were incubated for 2 hours with of 1 μM compound in presence or in absence of 10 μM of the NAE (NEDD8 activating enzyme) inhibitor MLN4924 (Cell Signalling Technologies). Cells were washed 2× with cold Phosphate Buffered Saline (PBS, Sigma Aldrich), followed by the addition of lysis buffer for 15 minutes on ice before harvesting and centrifugation.
Protein content in the cell lysate was assessed by BCA assay (Thermo Fisher). Samples were then prepared with 4× Laemmlli Buffer (Bio-Rad) and heated to 95° C. for 5 minutes. Each sample was loaded onto a Mini-PROTEAN TGX Stain Free Gel (Bio-Rad) at 50 μg protein/well. SDS-PAGE was performed and then protein was transferred onto a PVDF membrane using a Trans-Blot® Turbo™ Midi PVDF Transfer Pack (Bio-Rad. Membranes were blocked in TBS-T (Invitrogen), 5% (w/v) milk powder (Marvel) overnight at 4° C.
Membranes were incubated with anti-CCNK antibody (rabbit) primary antibody (Abcam) and anti-GAPDH antibody (rabbit) in TBS-T for 2 hours. Membranes were then washed three times with TBS-T, before incubation secondary goat anti-rabbit HRP antibody (Cell Signalling Technologies) followed by 3× washing in TBS-T. Blots were imaged using a Chemidoc imager (Bio-Rad). Cyclin K depletion was measured as the observable drop in band intensity in compound treated samples relative to proteasome-inhibitor treated samples.
Cyclin K degradation was evaluated by Western blotting for cyclin K in A673 cells exposed to 1 μM test compound for 2 hours in the absence and presence of 10 μM MLN4924 (to inhibit proteosome activity).

Human CDK12 wt/CycK = Human CDK12 wt/CycK (Homo sapiens (Human), UniProt Q9NYV4); assay: Radiometric protein kinase assay (33PanQinase Activity Assay), CDK12; format: biochemical; conditions: for CDK7/CDK12: ratio of CDK7 IC50 to CDK12 IC50, greater than 1 indicates selectivity for CDK12
Method in brief: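 Radiometric 33P assay: ATP, test compound (in 10% DMSO) and premixed substrate/enzyme incubated 60 min at 30 °C, stopped with 2% H3PO4. 33Pi incorporation counted by scintillation; least-squares curve fit.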

[3] = A673, read-out: Cellular Potency IC50 (nM) (in A673 cells)
[4] = A673 cells, 72 hours, read-out: A673 IC50
[5] = ATP 0.3 μM, read-out: CDK12 IC50
[6] = read-out: CKD12 Biochemical Potency IC50

Human CDK12 wt/CycK, sequence (Q9NYV4 whole entry): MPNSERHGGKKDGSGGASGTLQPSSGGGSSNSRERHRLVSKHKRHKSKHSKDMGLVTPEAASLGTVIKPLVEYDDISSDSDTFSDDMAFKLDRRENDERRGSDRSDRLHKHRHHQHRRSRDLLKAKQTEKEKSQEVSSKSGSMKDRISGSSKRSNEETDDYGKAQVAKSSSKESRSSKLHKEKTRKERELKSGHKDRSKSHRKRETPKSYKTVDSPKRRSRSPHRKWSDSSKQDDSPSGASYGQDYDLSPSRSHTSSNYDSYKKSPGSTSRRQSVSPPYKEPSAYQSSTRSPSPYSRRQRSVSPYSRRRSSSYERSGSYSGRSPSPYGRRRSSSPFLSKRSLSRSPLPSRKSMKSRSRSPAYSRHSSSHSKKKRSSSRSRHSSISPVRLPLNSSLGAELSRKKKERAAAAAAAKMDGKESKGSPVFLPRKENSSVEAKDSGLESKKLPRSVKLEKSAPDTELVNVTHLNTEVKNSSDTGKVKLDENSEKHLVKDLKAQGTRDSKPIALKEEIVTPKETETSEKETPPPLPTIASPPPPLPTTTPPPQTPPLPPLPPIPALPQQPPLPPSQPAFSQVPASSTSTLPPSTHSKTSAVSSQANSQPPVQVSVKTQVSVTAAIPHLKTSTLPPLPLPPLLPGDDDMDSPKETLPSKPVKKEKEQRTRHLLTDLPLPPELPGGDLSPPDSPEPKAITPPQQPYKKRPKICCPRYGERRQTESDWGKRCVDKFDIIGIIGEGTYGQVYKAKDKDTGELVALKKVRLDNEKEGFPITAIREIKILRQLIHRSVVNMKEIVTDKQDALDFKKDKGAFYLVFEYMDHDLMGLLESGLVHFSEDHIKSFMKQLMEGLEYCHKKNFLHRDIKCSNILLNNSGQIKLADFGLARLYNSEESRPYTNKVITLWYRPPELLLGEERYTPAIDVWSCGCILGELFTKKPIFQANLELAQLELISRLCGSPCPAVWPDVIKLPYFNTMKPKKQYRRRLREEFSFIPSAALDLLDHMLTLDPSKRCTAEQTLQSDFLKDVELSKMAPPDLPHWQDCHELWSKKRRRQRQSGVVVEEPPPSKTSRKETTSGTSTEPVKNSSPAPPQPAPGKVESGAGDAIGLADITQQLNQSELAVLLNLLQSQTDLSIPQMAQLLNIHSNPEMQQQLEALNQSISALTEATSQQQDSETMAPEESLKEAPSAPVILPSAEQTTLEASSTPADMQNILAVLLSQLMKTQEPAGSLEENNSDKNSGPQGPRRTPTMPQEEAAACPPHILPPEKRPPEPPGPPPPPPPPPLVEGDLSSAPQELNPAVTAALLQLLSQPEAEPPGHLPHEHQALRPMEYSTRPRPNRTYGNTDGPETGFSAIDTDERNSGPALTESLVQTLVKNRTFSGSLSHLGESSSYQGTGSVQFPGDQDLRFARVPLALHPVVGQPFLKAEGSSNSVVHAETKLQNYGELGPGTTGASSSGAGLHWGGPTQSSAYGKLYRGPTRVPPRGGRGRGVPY
Human CDK12 wt/CycK, sequence (O75909 whole entry partner): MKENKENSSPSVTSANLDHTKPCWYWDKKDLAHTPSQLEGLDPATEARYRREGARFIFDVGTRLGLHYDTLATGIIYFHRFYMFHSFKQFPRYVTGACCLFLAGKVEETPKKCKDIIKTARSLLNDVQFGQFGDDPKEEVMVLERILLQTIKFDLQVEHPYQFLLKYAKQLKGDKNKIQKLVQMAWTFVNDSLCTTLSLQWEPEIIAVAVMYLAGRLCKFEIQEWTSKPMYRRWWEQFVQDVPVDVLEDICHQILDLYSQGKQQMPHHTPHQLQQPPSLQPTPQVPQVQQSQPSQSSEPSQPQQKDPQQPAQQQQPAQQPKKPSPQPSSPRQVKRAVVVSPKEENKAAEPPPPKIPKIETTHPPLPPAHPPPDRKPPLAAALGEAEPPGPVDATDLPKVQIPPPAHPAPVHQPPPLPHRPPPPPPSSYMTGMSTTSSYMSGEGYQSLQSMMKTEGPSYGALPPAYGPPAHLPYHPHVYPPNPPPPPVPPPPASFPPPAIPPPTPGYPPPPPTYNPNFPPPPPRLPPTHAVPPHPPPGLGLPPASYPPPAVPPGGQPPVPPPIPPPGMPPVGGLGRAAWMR
Human CDK7/CycH/MAT1, sequence (P50613 whole entry): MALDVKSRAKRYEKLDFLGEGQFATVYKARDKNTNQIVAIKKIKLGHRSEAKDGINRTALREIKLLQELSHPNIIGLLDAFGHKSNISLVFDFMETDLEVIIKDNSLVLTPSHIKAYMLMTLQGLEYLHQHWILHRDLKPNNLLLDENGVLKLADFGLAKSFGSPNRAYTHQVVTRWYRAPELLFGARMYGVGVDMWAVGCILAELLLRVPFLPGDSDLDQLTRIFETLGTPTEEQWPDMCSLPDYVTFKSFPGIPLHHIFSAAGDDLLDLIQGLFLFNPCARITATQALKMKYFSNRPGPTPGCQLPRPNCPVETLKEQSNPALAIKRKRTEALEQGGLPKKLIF
Human CDK7/CycH/MAT1, sequence (P51946 whole entry partner): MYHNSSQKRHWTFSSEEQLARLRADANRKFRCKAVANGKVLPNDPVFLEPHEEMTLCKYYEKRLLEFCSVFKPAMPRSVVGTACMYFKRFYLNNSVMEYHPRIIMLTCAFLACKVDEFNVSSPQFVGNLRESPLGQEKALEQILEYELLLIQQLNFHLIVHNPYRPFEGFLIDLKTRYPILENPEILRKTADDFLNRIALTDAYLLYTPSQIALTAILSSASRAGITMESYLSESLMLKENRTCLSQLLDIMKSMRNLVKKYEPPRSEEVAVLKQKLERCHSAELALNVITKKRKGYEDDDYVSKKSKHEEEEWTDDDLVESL
Human CDK7/CycH/MAT1, sequence (P51948 whole entry partner): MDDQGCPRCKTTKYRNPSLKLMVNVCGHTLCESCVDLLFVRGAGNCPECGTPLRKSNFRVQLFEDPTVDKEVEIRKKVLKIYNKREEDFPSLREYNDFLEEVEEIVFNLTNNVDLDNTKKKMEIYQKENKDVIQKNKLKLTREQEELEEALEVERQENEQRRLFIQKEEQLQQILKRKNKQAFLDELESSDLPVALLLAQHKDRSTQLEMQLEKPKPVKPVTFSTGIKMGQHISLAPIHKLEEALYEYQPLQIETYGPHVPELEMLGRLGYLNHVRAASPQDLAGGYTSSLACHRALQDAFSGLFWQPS

| IC50 (Human CDK7/CycH/MAT1) | Cyclin K degradation by Western blotting (Cyclin K) | IC50 (Human CDK12 wt/CycK; [5]) | CDK7/CDK12 (Human CDK12 wt/CycK) | IC50 (Human CDK12 wt/CycK; [6]) | SMILES | Ratio of Biochemical Potency:Cellular Potency (A673 cells [1]) | IC50 (A673 cells [1]; [3]) | IC50 (A673 cells [1]; [4]) | Cyclin K Degrader Activity (A673 potency shift + MLN4924) (A673 cells [2]) | Change of cytotoxic potency in the presence of MLN4924 (A673 cells [2]) |
| --- | --- | --- | --- | --- | --- | --- | --- | --- | --- | --- |
| 312 nM | found to degrade Cyclin K | 51 nM | 6.1 | 51 nM | O[C@H]1CNCC[C@@H]1CNc1cc(NCc2ccc(-c3ccccn3)cc2)n2ncc(C3CC3)c2n1 [PPA-006] | 14.57 | 3.5 nM | 3.5 nM | +++ (>5 fold change.) | a significant decrease in cytotoxic potency |
| 112 nM | found to degrade Cyclin K | 34 nM | 3.3 | 34 nM | CCc1cnn2c(NCc3ccc(-c4ccccn4)cc3)cc(NC[C@H]3CCNC[C@@H]3O)nc12 [PPA-005, (3R,4R)-4-(((3-ethyl-7-((4-(pyridin-2-yl)benzyl)amino)pyrazolo[1,5-a]pyrimidin-5-yl)amino)methyl)piperidin-3-ol] | 30.91 | 1.1 nM | 1.1 nM | ++ (>2 and ≤5 fold change.) | a significant decrease in cytotoxic potency |
